Here are results for nine compounds from patent publication US5888971A, “Macrocyclic peptides useful in the treatment of thrombin related disorders” (Ortho Pharmaceutical Corporation, Inc., priority 1996, dated 1999).

Assay [1] deals with T1, Bovine type 1 trypsin (Bos taurus, UniProt P00760).
T1 construct: purchased Sigma
T1 sequence (P00760 24-246): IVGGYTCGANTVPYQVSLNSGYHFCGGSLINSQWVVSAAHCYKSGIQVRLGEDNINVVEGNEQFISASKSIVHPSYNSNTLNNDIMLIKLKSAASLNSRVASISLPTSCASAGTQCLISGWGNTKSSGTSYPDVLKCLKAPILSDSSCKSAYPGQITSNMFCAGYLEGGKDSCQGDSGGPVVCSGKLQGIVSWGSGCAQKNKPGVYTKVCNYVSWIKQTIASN
The experiment in a line: Trypsin-catalyzed hydrolysis of chromogenic substrate, Ki. Format: biochemical. To be noted: 3.2 U/ml trypsin, 0.1-0.3 mM Spectrozyme TRY; read-out: Trp Ki. On the procedure: (§1) The compounds of the invention were tested for their ability to inhibit thrombin mediated hydrolysis.
Trypsin-catalyzed hydrolysis rates were measured using the same method as the thrombin procedure.

The target in assay [2] is T2, human alpha-thrombin (Homo sapiens, UniProt P00734).
T2 construct: commercial human alpha-thrombin (American Diagnostica); purchased American Diagnostica
The experiment in a line: Thrombin-catalyzed hydrolysis of chromogenic substrate, Michaelis-Menten Ki. Format: biochemical. To be noted: 1 nM thrombin, 5-100 μM Spectozyme TH, 37° C., pH 7.4, Michaelis-Menten kinetics; for Ki: read-out: Thr Ki. On the procedure:
as §1
Changes in absorbance at 405 nm were monitored (Softmax, Molecular Devices), upon addition of enzyme, both with and without inhibitor present at 37° C. over 30 minutes. […] Michaelis-Menton kinetics were applied to the initial reaction slopes using the program K Cat (Bio Metallics Inc.).

Assay [3] has as its target T2, human alpha-thrombin. The experiment in a line: Slow, tight-binding kinetics with thrombin (Ki-slow). Format: biochemical. To be noted: 0.1 nM thrombin, 50 μM Spectozyme TH, 25° C., 4 h; read-out: Thr Ki -slow. On the procedure: Ki-slow was determined by measuring enzyme-catalyzed hydrolysis rates. […] The compound numbers in the table correspond to the examples described hereinafter.

In assay [4] the target is thrombin (Homo sapiens, UniProt P00734). To be noted: background section; cited from earlier work.

Usually Ki stands for the equilibrium dissociation constant of an inhibitor or competing ligand from its target. For “3S,6S,12R-N-[3-(12-BENZYL-2,5,11,14,20-PENTAOXO-23-THIA-4,10,13,19,24-PENTAAZATRICYCLO[19.2.1.3]-6,10-TETRACOSA-1(2H), 21-DIEN-3-YL)PROPYL]GUANIDINE [Compound 23]”, the values for the Ki in assay [1] and in assay [2] were 66 ± 26 nM and 1000 ± 400 nM, respectively.
As to “5R,14R,18S,20aS-N-[3-(5-BENZYL-14-METHYI-4,7,13,16,17,20-HEXAOXOEICOSAHYDRO-3a,6,12,15,19-PENTAAZACYCLOPENTA-CYCLONONADECEN-18-YL)PROPYL]GUANIDINE TRIFLUOROACETIC ACID [Compound 21]”, the figures for the inhibitory constant (Ki) in assay [1], in assay [3] and in assay [2] were 22 ± 14 nM, 4.71 ± 1.51 nM and 92 ± 46 nM, respectively.
As to “5R,15R,19S,21 AS-N-[3-(15-BENZHYDRYL-5-BENZYL-4,7,14,17,18,21-HEXAOXODOCOSAHYDRO-3a,6,13,16,20-PENTMZACYCLOPENTACYCLOEICOSEN-19-YL)PPROPYL]GUANIDINE TRIFLUOROACETIC ACID [Compound 19]”, the inhibition constant (Ki) in assay [1] was found to be 2.5 ± 0.75 nM; in assay [2], 5.3 ± 2.6 nM.
For “5R, 2S, 18S-N-[3-(5-NAPTHALEN-2-YLMETHYL-4, 17, 16, 17, 20-PENTAOXOEICOSAHYDRO-3a, 6, 15, 19-TETRAAZACYCLOPENTACYCLONONADECEN-18-YL)PROPYL] GUANIDINE TRIFLUOROACETATE HYDRATE [Compound 6]”, the inhibition constant (Ki) in assay [1] was determined as 6.8 ± 5 nM; in assay [2], 21 ± 5 nM.
Turning to “6R, 19S, 22S-N-[3-(6-BENZYL-5, 8, 17, 18, 21-PENTAOXODOCOSAHYDRO-4a, 7, 16, 20-TETRAAZABENCBZOCYCLONONADECEN-19-YL) PROPYL] GUANIDINE TRIFLUOROACETIC ACID HYDRATE [Compound 5]”, the values for the Ki in assay [1] and in assay [2] were 85 ± 29 nM and 90 ± 8.6 nM, respectively.
For `N=C(N)NCCCC1NC(=O)CCCCCNC(=O)C(Cc2ccccc2)NC(=O)C1=O` (centres unmarked) [Compound 18, N-[3-(3-BENZYL-2,5,6,9-TETRAOXO-1,4,8-TRIAZACYCLOTETRADEC-7-YL)PROPYL]GUANIDINE TRIFLUOROACETIC ACID] the same measures were 310 ± 10 nM and 3800 ± 200 nM.
Consider `N=C(N)NCCC[C@@H]1NC(=O)[C@@H]2CCCN2C(=O)[C@@H](NC=O)CNC(=O)/C=C/[C@H](Cc2ccc(O)cc2)NC(=O)[C@@H](Cc2ccccc2)NC(=O)C1=O` [CtA, Cyclotheonamide A, reference compound], for which the Ki is 23000 nM in assay [1], 1 to 2 nM in assay [4], 4 ± 1.9 nM in assay [3] and 170 ± 80 nM in assay [2]. For the same compound, the “selectivity for thrombin over trypsin” value in assay [4] is listed as “does not favor thrombin”.
`CN[C@H](Cc1ccccc1)C(=O)N1CCC[C@H]1C(=O)N[C@H](C=O)CCCN=C(N)N` [N-Me-PPAC, N-Me PPACK aldehyde, reference compound]: the Ki in assay [2] was 10 nM.
Turning to “[20aR-(20aR, 5R, 18S)]-N-[3-(5-PHENYLETHYL-17-HYDROXY-4, 7, 16, 20-TETRAOXOEICOSAHYDRO-3a, 6, 15, 19-TETRA-AZACYCLONONADECANE-18-YL) PROPYIL] GUANIDINE [Compound 22]”, in assay [2], the “Thr Ki” value is reported as “no activity at 50 μM”.
